Consider six compounds from ChEMBL document CHEMBL1126222, “Investigation of conformational specificity at GPIIb/IIIa: evaluation of conformationally constrained RGD peptides” (J Med Chem, 1992).

In test [1] the target is T1, Integrin alpha-IIb/beta-3 (Homo sapiens, UniProt P05106+P08514). The test can be described thus: Inhibition of [3H]Mba-(N-Me)Arg-Gly-Asp-Man binding to Fibrinogen Receptor from human platelets reconstituted in liposomes.
In test [2] the target is T1, Integrin alpha-IIb/beta-3. Description: Inhibition of [3H]Mba-(N-Me)Arg-Gly-Asp-Man binding to fibrinogen receptor of human platelets reconstituted in liposomes.
Test [3] deals with T1, Integrin alpha-IIb/beta-3. The test can be described thus: Inhibition of [3H]Mba-(N-Me)Arg-Gly-Asp-Man binding to GPIIb/IIIa from human platelets reconstituted in liposomes.

The structures appear in SMILES notation.

T1 sequence (P05106 27-788 limits assumed): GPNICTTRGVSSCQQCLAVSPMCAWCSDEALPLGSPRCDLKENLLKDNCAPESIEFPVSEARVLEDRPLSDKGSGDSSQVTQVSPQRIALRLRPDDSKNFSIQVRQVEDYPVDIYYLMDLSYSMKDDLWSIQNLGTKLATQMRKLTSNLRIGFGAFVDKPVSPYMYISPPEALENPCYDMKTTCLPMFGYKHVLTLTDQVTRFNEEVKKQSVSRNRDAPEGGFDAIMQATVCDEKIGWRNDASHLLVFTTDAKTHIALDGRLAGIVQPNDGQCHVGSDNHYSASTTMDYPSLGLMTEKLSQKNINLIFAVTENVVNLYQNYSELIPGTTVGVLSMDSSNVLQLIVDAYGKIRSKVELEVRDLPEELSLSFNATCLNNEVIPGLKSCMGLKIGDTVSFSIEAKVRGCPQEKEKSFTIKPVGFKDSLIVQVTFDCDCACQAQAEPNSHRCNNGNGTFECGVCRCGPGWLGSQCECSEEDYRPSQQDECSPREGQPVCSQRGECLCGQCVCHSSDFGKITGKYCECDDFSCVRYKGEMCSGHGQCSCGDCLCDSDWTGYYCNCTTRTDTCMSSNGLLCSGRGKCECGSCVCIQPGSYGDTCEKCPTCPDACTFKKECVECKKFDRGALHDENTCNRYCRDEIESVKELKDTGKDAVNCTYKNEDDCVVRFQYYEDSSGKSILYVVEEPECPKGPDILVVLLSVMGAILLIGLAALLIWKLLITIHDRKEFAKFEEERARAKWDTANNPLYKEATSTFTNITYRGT
T1 sequence (P08514 32-887 limits assumed): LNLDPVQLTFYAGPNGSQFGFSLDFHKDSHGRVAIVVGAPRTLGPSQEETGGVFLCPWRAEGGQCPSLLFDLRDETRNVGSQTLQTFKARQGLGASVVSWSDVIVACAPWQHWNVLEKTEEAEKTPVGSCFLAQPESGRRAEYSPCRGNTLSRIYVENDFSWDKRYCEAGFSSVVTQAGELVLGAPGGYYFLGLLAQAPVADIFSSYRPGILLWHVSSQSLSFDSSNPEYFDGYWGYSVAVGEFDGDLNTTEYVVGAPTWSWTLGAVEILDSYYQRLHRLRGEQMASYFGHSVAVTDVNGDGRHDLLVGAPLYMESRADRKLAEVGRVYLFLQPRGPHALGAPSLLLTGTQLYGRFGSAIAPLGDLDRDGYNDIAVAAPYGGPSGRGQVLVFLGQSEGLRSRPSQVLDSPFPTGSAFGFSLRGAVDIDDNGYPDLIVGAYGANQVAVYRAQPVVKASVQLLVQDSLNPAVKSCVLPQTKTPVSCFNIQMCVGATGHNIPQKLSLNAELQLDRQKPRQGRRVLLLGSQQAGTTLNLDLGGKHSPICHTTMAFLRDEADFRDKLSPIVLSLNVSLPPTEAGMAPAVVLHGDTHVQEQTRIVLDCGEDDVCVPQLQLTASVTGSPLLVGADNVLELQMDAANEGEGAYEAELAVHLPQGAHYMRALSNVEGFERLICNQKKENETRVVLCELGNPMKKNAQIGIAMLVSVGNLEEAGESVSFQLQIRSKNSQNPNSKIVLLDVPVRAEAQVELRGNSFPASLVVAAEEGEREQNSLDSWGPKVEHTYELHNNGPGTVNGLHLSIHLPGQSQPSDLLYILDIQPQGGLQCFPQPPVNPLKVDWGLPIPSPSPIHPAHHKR
T1 sequence (P08514 891-1039 limits assumed): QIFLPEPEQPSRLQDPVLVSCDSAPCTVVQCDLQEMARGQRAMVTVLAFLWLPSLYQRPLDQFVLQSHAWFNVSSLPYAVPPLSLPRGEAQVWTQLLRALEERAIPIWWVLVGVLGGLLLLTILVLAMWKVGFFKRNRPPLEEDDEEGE

`CC(=O)N[C@@H](CS)C(=O)N[C@@H](CCCN=C(N)N)C(=O)NCC(=O)N[C@@H](CC(=O)O)C(=O)NC(C(N)=O)C(C)(C)S` (stereo in doubt) showed a Ki in test [1] of 3.13 µM.

The compound `CN(C(=O)c1ccccc1S)[C@@H](CCCNC(=N)N)C(=O)NCC(=O)N[C@@H](CC(=O)O)C(=O)Nc1ccccc1S` showed a Ki in test [2] of 0.004 µM.

As to `CC(=O)N[C@@H](CS)C(=O)N(C)[C@@H](CCCN=C(N)N)C(=O)NCC(=O)N[C@@H](CC(=O)O)C(=O)N[C@H](C(N)=O)C(C)(C)S`, the Ki in test [2] was 0.175 µM.

With `N=C(N)NCCC[C@@H]1NC(=O)[C@@H]2CCCN2C(=O)CNC(=O)[C@H]2CCCN2C(=O)[C@H](CC(=O)O)NC(=O)CNC1=O`, in test [3], the inhibition constant Ki was more than 100 µM.

Consider `CC(=O)N[C@@H](CS)C(=O)N[C@H](CCCN=C(N)N)C(=O)NCC(=O)N[C@@H](CC(=O)O)C(=O)N[C@H](C(N)=O)C(C)(C)S`, for which the Ki in test [2] was found to be 3.3 µM.

`N=C(N)NCCC[C@@H]1NC(=O)[C@@H]2CCCN2C(=O)[C@@H](Cc2ccccc2)NC(=O)CNC(=O)[C@H](CC(=O)O)NC(=O)CNC1=O`: the affinity in test [3], expressed as Ki, was 18.5 µM.
